The source of these data is US7285543B2, “Purine inhibitors of fructose-1,6-bisphosphatase” (Metabasis Therapeutics, Inc., priority 1997, dated 2007).

One data set deals with T1, human liver FBPase (Homo sapiens, UniProt P09467).
T1 construct: made in house; host or cells: E. coli BL21
T1 sequence (P09467 2-338 limits assumed): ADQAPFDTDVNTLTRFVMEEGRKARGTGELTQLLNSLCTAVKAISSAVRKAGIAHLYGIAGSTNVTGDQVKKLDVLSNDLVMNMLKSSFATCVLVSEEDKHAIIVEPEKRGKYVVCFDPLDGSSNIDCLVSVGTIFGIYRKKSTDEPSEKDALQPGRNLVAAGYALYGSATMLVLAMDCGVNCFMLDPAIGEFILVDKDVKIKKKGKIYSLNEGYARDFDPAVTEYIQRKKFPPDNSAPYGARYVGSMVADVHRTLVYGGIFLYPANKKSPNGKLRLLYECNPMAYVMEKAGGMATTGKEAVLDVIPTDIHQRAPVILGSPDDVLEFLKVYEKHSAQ
In words: Inhibition of human liver FBPase (coupled spectrophotometric assay). In kind it is biochemical.

The target in another data set is T2, rat liver FBPase (Rattus norvegicus, UniProt P19112).
T2 construct: made in house; host or cells: E. coli BL21
T2 sequence (P19112 2-363 limits assumed): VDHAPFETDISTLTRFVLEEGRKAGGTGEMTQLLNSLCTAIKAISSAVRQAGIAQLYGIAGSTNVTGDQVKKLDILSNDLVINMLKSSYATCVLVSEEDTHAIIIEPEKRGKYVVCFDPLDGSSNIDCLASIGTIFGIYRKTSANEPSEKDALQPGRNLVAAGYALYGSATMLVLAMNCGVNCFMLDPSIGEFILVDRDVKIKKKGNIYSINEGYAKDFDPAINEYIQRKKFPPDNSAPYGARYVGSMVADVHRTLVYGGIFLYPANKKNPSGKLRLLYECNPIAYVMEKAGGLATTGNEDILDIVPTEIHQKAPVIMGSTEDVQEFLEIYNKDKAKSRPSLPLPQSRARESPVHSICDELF
The data set is described as follows: In vitro inhibition of rat liver FBPase. It is filed as biochemical. As for the experimental part:
(§1) Mouse liver FBPase was obtained by homogenizing freshly isolated mouse liver in 100 mM Tris-HCl buffer, pH 7.4, containing 1 mM EGTA, and 10% glycerol. […] This fraction was redissolved in the homogenization buffer and desalted on a PD-10 gel filtration column (Biorad) eluted with same. This partially purified fraction was used for enzyme assays. Both rat liver and mouse liver FBPase were assayed as described for human liver FBPase.

In the next data set the target is T3, mouse liver FBPase (Mus musculus, UniProt Q9QXD6).
T3 construct: This partially purified fraction was used for enzyme assays; from tissue; host or cells: mouse liver
T3 sequence (Q9QXD6 2-338 limits assumed): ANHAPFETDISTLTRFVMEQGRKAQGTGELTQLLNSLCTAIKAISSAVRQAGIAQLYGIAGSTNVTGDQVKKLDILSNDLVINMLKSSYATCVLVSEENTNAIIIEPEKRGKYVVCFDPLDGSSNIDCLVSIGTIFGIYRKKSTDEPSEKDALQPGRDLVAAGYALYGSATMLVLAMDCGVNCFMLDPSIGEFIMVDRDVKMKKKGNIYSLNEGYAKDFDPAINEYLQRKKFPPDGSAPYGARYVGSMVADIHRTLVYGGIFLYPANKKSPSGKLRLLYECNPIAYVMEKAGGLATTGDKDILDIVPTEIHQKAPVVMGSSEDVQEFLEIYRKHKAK
The data set is described as follows: In vitro inhibition of mouse liver FBPase. It is filed as biochemical. As for the experimental part:
as §1

The next data set addresses T4, Human adenosine kinase (Homo sapiens, UniProt P55263).
T4 construct: made in house; host or cells: E. coli
In words: AMP site/enzyme selectivity: adenosine kinase. In kind it is biochemical. Conditions: selectivity table; read-out: Adenosine Kinase (inh.).

In data set [1] the target is T5, Adenylate Kinase (rabbit muscle) (Oryctolagus cuniculus, UniProt P00569).
T5 construct: purchased Sigma
T5 sequence (P00569 1-194): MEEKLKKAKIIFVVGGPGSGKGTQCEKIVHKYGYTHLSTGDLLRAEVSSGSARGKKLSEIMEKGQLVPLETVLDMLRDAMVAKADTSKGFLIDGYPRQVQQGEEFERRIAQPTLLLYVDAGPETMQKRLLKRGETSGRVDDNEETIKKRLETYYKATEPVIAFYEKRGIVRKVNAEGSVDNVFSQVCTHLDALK
In words: AMP site/enzyme selectivity: adenylate kinase. In kind it is biochemical. As to conditions: selectivity table; read-out: Adenylate Kinase (inh.).

Data set [2] deals with rat hepatocytes. The data set is described as follows: Inhibition of gluconeogenesis (glucose production from lactate/pyruvate) in rat hepatocytes. In kind it is cell-based. As to conditions: for IC50: from lactate/pyruvate, isolated rat hepatocytes. As for the experimental part:
Hepatocytes were prepared from overnight fasted Sprague-Dawley rats (250-300 g) according to the procedure of Berry and Friend (Berry, M. N., Friend, D. S., J. Cell. Biol. 1969, 43, 506-520) as modified by Groen (Groen, […]., Eur. J. Biochem. 1982, 122, 87-93). […] Incubations were carried out in a 95% oxygen, 5% carbon dioxide atmosphere in closed, 50-mL Falcon tubes submerged in a rapidly shaking water bath (37° C.). After 1 hour, an aliquot (0.25 mL) was removed, transferred to an Eppendorf tube and centrifuged. 50 μl of supernatant was then assayed for glucose content using a Sigma Glucose Oxidase kit as per the manufacturer's instructions.

The target in data set [3] is T6, Glycogen Phosphorylase (rabbit muscle) (Oryctolagus cuniculus, UniProt P00489).
T6 sequence (P00489 2-843 limits assumed): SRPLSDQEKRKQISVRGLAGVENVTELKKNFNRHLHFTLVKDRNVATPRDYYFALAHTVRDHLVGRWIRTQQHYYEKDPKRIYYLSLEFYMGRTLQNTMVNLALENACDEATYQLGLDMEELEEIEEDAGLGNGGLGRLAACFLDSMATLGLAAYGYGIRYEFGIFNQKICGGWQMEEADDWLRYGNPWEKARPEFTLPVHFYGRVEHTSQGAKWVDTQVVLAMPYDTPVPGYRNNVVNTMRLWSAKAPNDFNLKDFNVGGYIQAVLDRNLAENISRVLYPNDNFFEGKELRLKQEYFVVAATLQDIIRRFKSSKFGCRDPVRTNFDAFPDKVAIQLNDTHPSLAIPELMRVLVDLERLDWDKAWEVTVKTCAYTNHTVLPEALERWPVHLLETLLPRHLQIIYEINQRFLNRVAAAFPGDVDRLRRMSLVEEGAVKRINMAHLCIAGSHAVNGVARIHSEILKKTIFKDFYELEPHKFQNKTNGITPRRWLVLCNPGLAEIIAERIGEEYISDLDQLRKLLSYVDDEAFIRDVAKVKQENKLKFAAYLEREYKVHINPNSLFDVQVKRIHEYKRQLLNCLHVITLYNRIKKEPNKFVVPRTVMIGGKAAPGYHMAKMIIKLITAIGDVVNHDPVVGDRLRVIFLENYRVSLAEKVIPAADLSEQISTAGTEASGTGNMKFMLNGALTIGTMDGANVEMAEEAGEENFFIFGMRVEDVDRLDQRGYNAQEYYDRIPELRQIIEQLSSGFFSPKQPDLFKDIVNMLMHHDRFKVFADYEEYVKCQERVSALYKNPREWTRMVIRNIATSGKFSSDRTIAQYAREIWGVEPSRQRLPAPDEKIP
In words: AMP site/enzyme selectivity: glycogen phosphorylase.
Description: To determine the selectivity of compounds towards FBPase, effects of FBPase inhibitors on 5 key AMP binding enzymes were measured using the assays described below: • Adenosine Kinase: Human adenosine kinase was purified from an E. coli expression system as described by Spychala et al. (Spychala, J., Datta, N. S., Takabayashi, K., Datta, M., Fox, I. H., Gribbin, T., and Mitchell, B. S. Proc. Natl. Acad. Sci. USA 1996, 93, 1232-1237). Activity was measured essentially as described by Yamada et al. (Yamada, Y., Goto, H., Ogasawara, N. Biochim. Biophys. Acta 1988, 660, 36-43.) with a few minor modifications. Assay mixtures contained 50 mM TRIS-maleate buffer, pH 7.0, 0.1% BSA, 1 mM ATP 1 mM MgCl2, 1.0 μM [U-^14C] adenosine (400-600 mCi/mmol) and varying duplicate concentrations of inhibitor. ^14C-AMP was separated from unreacted ^14C-adenosine by absorption to anion exchange paper (Whatman) and quantified by scintillation counting. • Adenosine Monophosphate Deaminase: Porcine heart AMPDA was purified essentially as described by Smiley et al. (Smiley, K. L., Jr, Berry, A. J., and Suelter, C. H. J. Biol. Chem. 1967, 242, 2502-2506) through the phosphocellulose step. Inhibition of AMPDA activity was determined at 37° C. in a 0.1 mL assay mixture containing inhibitor, ˜0.005U AMPDA, 0.1% bovine serum albumin, 10 mM ATP, 250 mM KCl, and 50 mM MOPS at pH 6.5. […]

Data set [4] has as its system rat hepatocytes. The data set is described as follows: Gluconeogenesis from dihydroxyacetone in rat hepatocytes: glucose production and fructose 1,6-bisphosphate accumulation. In kind it is cell-based. As for the experimental part:
Isolated rat hepatocytes were prepared as described in Example D and incubated under the identical conditions described except that lactate/pyruvate was replaced by 10 mM dihydroxyacetone, a substrate which feeds into the gluconeogenic pathway at a step just prior to FBPase. Reactions were terminated by removing an aliquot (250 μL) of cell suspension and spinning it through a layer of oil (0.8 mL silicone/mineral oil, 4/1) into a 10% perchloric acid layer (100 μL). […] After thorough mixing and centrifugation, the supernatant was analyzed for glucose content as described in Example D, and also for fructose-1,6-bisphosphate. Fructose-1,6-bisphosphate was assayed spectrophotometrically by coupling its enzymatic conversion to glycerol 3-phosphate to the oxidation of NADH, which was monitored at 340 nm. Reaction mixtures (1 mL) consisted of 200 mM Tris-HCl, pH 7.4, 0.3 mM NADH, 2 units/mL glycerol 3-phosphate dehydrogenase, 2 units/mL triosephosphate isomerase, and 50-100 μl cell extract. After a 30 minute preincubation at 37° C., 1 unit/mL of aldolase was added and the change in absorbance measured until a stable value was obtained. 2 moles of NADH are oxidized in this reaction per mole of fructose-1,6-bisphosphate present in the cell extract.

The test system of data set [5] is 18 hours fasted Sprague-Dawley rats. The data set is described as follows: Blood glucose and liver fructose-1,6-bisphosphate accumulation in fasted rats. It is filed as in vivo, rat. As to conditions: 20 mgs/kg intraperitoneally.
Data set [6] in a line: Analysis of drug levels in plasma and liver of rats. It is filed as in vivo, rat. Conditions: 20 mgs/kg intraperitoneally, one hour post injection.
The test system of data set [7] is Zucker Diabetic Fatty rats. The data set is described as follows: Blood glucose lowering in Zucker Diabetic Fatty rats. Conditions: 50 mg/kg intraperitoneal, 2 hours post dose, 24-hour fasted. In kind it is in vivo, rat. As for the experimental part:
Zucker Diabetic Fatty rats purchased at 7 weeks of age were used at age 16 weeks in the 24-hour fasted state. The rats were purchased from Genetics Models Inc. and fed the recommended Purina 5008 diet (6.5% fat). Their fasting hyperglycemia at 24 hours ranged from 150 mg/dL to 310 mg/dL blood glucose.
The stock solution was made up at […] in deionized water and adjusted to neutrality by dropwise, addition of 5 N NaOH. 5 control animals were dosed with saline. Blood glucose was measured at the time of dosing and 2 hours post dose as described in Example F.

For data set [8], the system named is Zucker Diabetic Fatty rats. The data set is described as follows: Inhibition of gluconeogenesis (14C-bicarbonate incorporation into glucose) in Zucker Diabetic Fatty rats. It is filed as in vivo, rat. As to conditions: 50 mg/kg intraperitoneal. As for the experimental part: Blood samples (0.6 mL) were obtained by cardiac puncture 10 and 20 minutes post tracer injection. Blood (0.5 mL) was diluted into 6 mL deionized water and protein precipitated by addition of 1 mL zinc sulfate (0.3 N) and 1 mL barium hydroxide (0.3 N). The mixture was centrifuged (20 minutes, 1000×g) and 5 mL of the resulting supernatant was then combined with 1 g of a mixed bed ion exchange resin (1 part AG 50W-X8, 100-200 mesh, hydrogen form and 2 parts of AG 1-X8, 100-200 mesh, acetate form) to separate ^14C-bicarbonate from ^14C-glucose. The slurry was shaken at room temperature for four hours and then allowed to settle. An aliquot of the supernatant (0.5 mL) was then counted in 5 mL scintillation cocktail.

The nature of data set [9]: Estimation of the oral bioavailability of prodrugs of phosphonic acids (urinary recovery). In kind it is in vivo, rat. As to the method: Prodrugs were dissolved in 10% ethanol/90% polyethylene glycol (mw 400) and administered by oral gavage at doses of approximately 20 or 40 mg/kg parent compound equivalents to 6-hour fasted, Sprague Dawley rats (220-240 g). The rats were subsequently placed in metabolic cages and urine was collected for 24 hours. The quantity of parent compound excreted into urine was determined by HPLC analysis. An ODS column eluted with a gradient from potassium phosphate buffer, pH 5.5 to acetonitrile was employed for these measurements. Detection was at 310-325 nm. […] Parent compounds were typically dissolved in dimethyl sulfoxide, and administered via the tail vein in animals that were briefly anesthetized with halothane.

The subject of data set [10] is 18 hours fasted Sprague Dawley rats. The data set is described as follows: Blood glucose lowering in fasted rats. It is filed as in vivo, rat. Conditions: 35, 45, and 60 mg/kg intraperitoneally, result in words. As to the method: The vehicle used for drug administration was dimethylsulfoxide. Blood samples were obtained from the tail vein of conscious animals just prior to injection and then at half-hourly intervals. Blood glucose was measured using a HemoCue Inc. glucose analyzer according to the instructions of the manufacturer.

For data set [11], the system named is rat hepatocytes. As to conditions: 10 μM prodrug, within 10 minutes. As for the experimental part:
Rat hepatocytes were prepared and incubated as in Example D, except that the test compound, 16.4, was added to yield a final concentration of 10 μM. Aliquots of the cell suspension were taken at 0, 5, 10, 20, 30, 45, and 60 minutes after drug exposure.

T4 sequence (P55263 1-345 isoform P55263-2): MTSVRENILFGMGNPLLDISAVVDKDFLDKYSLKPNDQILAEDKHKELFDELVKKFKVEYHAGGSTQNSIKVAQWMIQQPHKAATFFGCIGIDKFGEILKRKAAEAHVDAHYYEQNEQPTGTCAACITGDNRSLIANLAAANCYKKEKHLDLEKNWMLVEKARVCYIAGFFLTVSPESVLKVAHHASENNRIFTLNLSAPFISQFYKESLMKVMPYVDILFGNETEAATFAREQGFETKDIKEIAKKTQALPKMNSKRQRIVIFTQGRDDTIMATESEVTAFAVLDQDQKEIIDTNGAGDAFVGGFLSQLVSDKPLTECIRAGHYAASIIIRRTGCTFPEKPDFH

Turning to `Nc1ncnc2c1nc(-c1ccc(P(=O)(O)O)o1)n2CCc1ccccc1` [Compound 2.1, N^9-(2-phenethyl)-8-(2-(5-phosphono)furanyl)adenine], the IC50 at human liver FBPase is 5 µM; on rat liver FBPase it was 100 µM; at mouse liver FBPase, over 20 µM; at Human adenosine kinase, over 10 µM; in data set [1] it was over 500 µM; in the data set with rat hepatocytes [2] (Hepatocyte), 90 µM. Besides, in data set [3], the EC50 is over 250 µM.
For the molecule `CC(C)(C)Cn1c(-c2ccc(P(=O)(O)O)o2)nc2c(N)ncnc21` [Compound 2.7, N^9-neopentyl-8-(2-(5-phosphono)furanyl)adenine], the IC50 was over 500 µM in [1]; 4.5 µM in the data set on rat hepatocytes [2] (Hepatocyte); about 5 µM in the data set with rat hepatocytes [4] (Hepatocyte, 10 mM dihydroxyacetone, rat hepatocytes). Further, the “accumulation of fructose-1,6-bisphosphate in hepatocytes (FIG. 4B)” value in the data set on rat hepatocytes [4] (dihydroxyacetone, result in words) is listed as “dose-dependent accumulation of fructose-1,6-bisphosphate”. Besides, the “elevation of fructose-1,6-bisphosphate levels in liver” value in data set [5] (one hour post injection) was 10 fold. Also, the “blood glucose after treatment” value in [5] (within one hour, lowered from 82±3) amounted to 28 ± 9.9 mg/dL. Besides, in data set [6], the “drug level in liver” value was determined as 51.3 ± 10 nmol/g. The concentration at 1 h in data set [6] (Sprague-Dawley, rat, plasma, ip, 20 mg/kg, read-out: drug level in plasma) turned out to be 38.5 ± 7 µM. Further, in data set [7], the “blood glucose lowered, average” value was about 20%. Besides, in data set [8], the “reduction of incorporation of 14C-bicarbonate into glucose” value was determined as 75%. Moreover, in data set [9] (intravenous, approximately 10 mg/kg, 24 hours urine), the “intravenous dose recovered in urine” value is listed as 76.8%.
For the molecule `CC(C)C(=O)OCOP(=O)(OCOC(=O)C(C)C)c1ccc(-c2nc3c(N)ncnc3n2CC(C)(C)C)o1` [Compound 16.4, 6-Amino-9-neopentyl-8-(2-(5-diisobutyrylmethylphosphono)furanyl)-purine], the IC50 with rat hepatocytes [2] worked out at 3 µM. Also, the “glucose production in rat hepatocytes (FIG. 11B)” value in the data set with rat hepatocytes [2] (result in words) is reported as “inhibited glucose production”. Moreover, the “blood glucose lowering (FIG. 6)” value in data set [10] was “profound glucose lowering”. The “intracellular concentration of compound 2.7” value with rat hepatocytes [11] is listed as “approximately 80 nmoles/g”. Further, the “oral dose recovered in urine (as parent compound)” value in data set [9] (oral, approximately 20 mg/kg, 24 hours urine) was 6.2%. For the same molecule, the oral bioavailability entry in [9] (rat, estimated from urinary recovery vs intravenous parent) is on record as “approximately 8%”.

One may read the EC50 as the midpoint of the concentration-response curve.
